Laboratory results as given in US4201784A, “Substituted 2-[2'-(5"-nitrofuryl-2")vinyl-and 4'-(5"-nitrofuryl-2"-1,3-butadieryl]quinoline-4-carboxylic acid amides and salts thereof” (Institut Organicheskogo Sinteza Akademii Nauk Latviiskoi SSR, priority 1977, dated 1980).
Where two headings read alike, the source gives them in different places.

Columns and labels:
[1] = test system: acatol-1; assay: Antitumor activity, large intestine adenocarcinoma acatol-1; type: in vivo, mice
Experimental: (§1) Apart from the tests on Ehrlich ascitic tumor, giniquine was studied on twelve more inoculated tumors. Seven tumors (melanoma B16, sarcoma AK, large intestine carcinoma acatol-1, sarcoma 180, adenocarcinoma 755, Lewis lung carcinoma and sarcoma 37) were inoculated subcutaneously with 50 mg of tumoral cells per mouse. Four tumors (lymphatic leukemies L 5178, L 5178Y, L 1210 and P-388) were inoculated intraperitoneally with 10^6 cells per mouse. One tumor (La, hemocytoblastosis) was inoculated intraperitoneally by injecting 50 mg of cell suspension of spleen and liver of mice suffering La hemocytoblastosis, per mouse. Giniquine was injected intraperitoneally five times for seven days: 1,2,3,4,7 days or 3,4,5,6,7 days after the implantation of tumor. The rate of deceleration of the tumor growth was established 14 days after the ultimate injection of giniquine; life of test animals was recorded for 60 days.

[2] = test system: Lungs; assay: In vivo biosynthesis of DNA, RNA and protein in lungs; set-up: species or system mice; conditions: 24 hours, intraperitoneal 28 mg/kg
Experimental: The influence of giniquine on biosynthetic processes in the in vivo tests was studied on common white mice of a mass of 25-35 g with Ehrlich ascitic tumor.
The mice were divided into two groups. The animals in the first group were given a single injection of the preparation in differing doses, and the animals in the second group were treated with distilled water. Three series of experiments were conducted. In the first series of tests (16 mice) the preparation was injected in a dose of 100 mg/kg ([…] dose), and the animals were decapitated one hour after the injection; in the second test series (16 mice) the animals were slaughtered 3 hours after the injection with other conditions being the same. In the third test series (35 mice) the influence of giniquine on plastic metabolism in tumor cells and normal tissues was studied 24 hours after the injection of a 0.33% solution of the preparation in a dose of 28 mg/kg (therapeutical dose).
Labeled precursors of nucleic acids and protein were injected intraperitoneally one hour before the slaughter of the animals (50 μc/100 g). Ascitic fluid, as well as liver and spleen, mucous membrane of small intestine, brain, kidneys and lungs were taken for analysis. 10% suspension was prepared from tumor cells, and 10% homogenates were prepared from tissues in a physiological solution.
Tumor cells and tissue homogenates for precipitation of nucleic acids were treated with 57% perchloric acid (10:1). […] Radioactivity of DNA and RNA fractions was measured by means of a liquid scintillation counter. The quantity of DNA and RNA was determined by spectrophotometry: the quantity of DNA was determined with diphenylamine, and RNA- with orcin.
To prepare protein hydrolysate, the suspension of tumoral cells and homogenates of normal tissues were treated with cool 10% trichloracetic acid (1:4), with subsequent centrifuging at 2000 g for ten minutes. […] The radioactivity was measured by means of a liquid scintillation counter. Protein was quantitatively determined by spectrophotometry using a microbiuret reaction.

[3] = test system: melanoma B16; assay: Antitumor activity, melanoma B16; type: in vivo, mice
Experimental: as §1, with “Giniquine was injected intraperitoneally five times for seven days: 1,2,3,4,7 days or 3,4,5,6,7 days after the implantation of tumor.” left out

[4] = Biological availability, blood and liver of rats; type: in vivo; conditions: intraperitoneal 100 mg/kg
Experimental: The biological availability of giniquine was studied on common white male rats with a mass of 150-200 g and common white male mice with a mass of 25-30 g. The test began seven days after Ehrlich ascitic carcinoma was inoculated to the animals.
Giniquine was injected intraperitoneally in 100 mg/kg doses, using distilled water as a solvent. The animals were slaughtered at preset time intervals (5,15,30 and 60 minutes) and a biological material (blood and liver for rats and ascites for mice) was taken for analysis. To separate ascitic fluid from the tumor cells, ascites was centrifuged at 2000 r.p.m. for 10 minutes. The precipitate was washed with a mixture of physiological solution and heparin and was again centrifuged under the same conditions, 20% homogenates in distilled water were prepared from ascitic cells.
Giniquine was extracted from the biological material with chloroform.
The extraction procedure comprised the following stages: 0.1 ml of ethyl alcohol were added to 1 ml of tested sample and the solution was thoroughly mixed with 0.5 ml of a saturated potassium carbonate solution, then 4 ml of chloroform was added. Closed test tubes were vigorously shaken on a rocker for one hour. After the shaking, the samples were centrifuged at 5000 r.p.m. for ten minutes. The chloroform layer was used for analysis. Daylight was avoided.
Concentration of the preparation in biological samples was determined by spectrophotometry at 400 nm using molar absorption factor (ε0.10^-3 =36.04).
The results were expressed in μg/ml of sample. Minimum sensitivity of the method was 1.1 μg/ml.

[5] = BALB/c female mice, intraperitoneal, days 3,4,5,6,7, optim. daily dose 10.0 mg/kg
[6] = BDF1 male mice, intraperitoneal, days 1,2,5,6,7, optim. daily dose 17.0 mg/kg

CCN(CC)CCCC(C)NC(=O)c1cc(C=Cc2ccc([N+](=O)[O-])o2)nc2ccccc12 (stereo not drawn) [giniquine, 2-[2'-(5"-nitrofuryl-2")vinyl]quinoline-4-carboxylic acid (α-methyl-δ-diethylaminobutyl)amide triphosphate]
Deceleration of tumor growth [1, 5]: 38% | Max. prolongation of life [1, 5]: 25% | antitumor effect / sensitivity (in words) ([1]; acatol-1): slight antitumor effect | Incorporation of specific precursors, DNA [2]: 255.0 % of control | Incorporation of specific precursors, Protein [2]: 102.0 % of control | Incorporation of specific precursors, RNA [2]: 124.0 % of control | Deceleration of tumor growth [3, 6]: 48% | Max. prolongation of life [3, 6]: 10% | antitumor effect (in words) ([3]; melanoma B16): slight antitumor effect | time of detection in blood ([4]; blood): as early as in five minutes | Cmax at 0.5 h ([4]; rat, blood, ip, 30 minutes, read-out: maximum level in blood): 23000 ng/mL | Tmax ([4]; rat, ip, blood, read-out: time of maximum level in blood (converted)): 30 min | Cmax ([4]; rat, ip, liver, read-out: maximum concentration in liver): 28000 ng/mL | Tmax ([4]; rat, ip, liver, read-out: time of maximum concentration in liver (converted)): 20 min | concentration at 1 h ([4]; rat, serum, ip, 60 minutes, read-out: content in blood serum): 3000 ng/mL
